{
  "source": "patent US9346812B2",
  "about": "“Substituted pyrrolopyrimidine compounds, compositions thereof, and methods of treatment therewith” (Signal Pharmaceutical LLC, priority 2013, dated 2016)",
  "data": [
    {"tested_on": "CAL51 cell proliferation", "assay": "Cell Titer Glo Proliferation Assay (CAL51)", "type": "cell-based, human", "settings": "CAL51 cell proliferation, 72 h, Cell Titer Glo luminescence; read-out: Act. Level", "procedure,_shortened": "(§1)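 Viability is measured by CellTiter-Glo luminescence after 72 h of compound exposure. CAL51 cells were seeded in growth medium with 10% FBS and 2 mM glutamine, cultured overnight, then dosed with compound dilutions, vehicle held at 0.2% DMSO.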", "units": {"IC50": "µM"}, "values": [
      {"smiles": "CNC(=O)c1ccc(Nc2nc(OC3CC3)c3c(-c4ccn(C)n4)c[nH]c3n2)c(OC)c1", "note": "[Example 218, 4-(4-cyclopropoxy-5-(1-methyl-1H-pyrazol-3-yl)-7H-pyrrolo[2,3-d]pyrimidin-2-ylamino)-3-methoxy-N-methylbenzamide]", "IC50": "1 to 10"}
    ]},
    {"tested_on": "CAL51 cell proliferation", "assay": "Cell Titer Glo Proliferation Assay (CAL51)", "type": "cell-based, human", "settings": "Homo sapiens, CAL-51; CAL51 cell proliferation, 72 h, Cell Titer Glo luminescence; read-out: Act. Level", "procedure,_shortened": "as §1", "units": {"IC50": "µM"}, "values": [
      {"smiles": "CNC(=O)c1ccc(Nc2nc(O[C@H]3CC[C@](C)(O)CC3)c3c(-c4ccc5nc(C)oc5c4)c[nH]c3n2)c(OC)c1", "note": "[Example 205, 4-(4-((1r,4r)-4-hydroxy-4-methylcyclohexyloxy)-5-(2-methylbenzo[d]oxazol-6-yl)-7H-pyrrolo[2,3-d]pyrimidin-2-ylamino)-3-methoxy-N-methylbenzamide]", "IC50": "< 0.1"},
      {"smiles": "CNC(=O)c1ccc(Nc2nc(O[C@H]3CC[C@@](C)(O)CC3)c3c(-c4ccc5nc(C)oc5c4)c[nH]c3n2)c(OC)c1", "note": "[Example 206, 4-(4-((1s,4s)-4-hydroxy-4-methylcyclohexyloxy)-5-(2-methylbenzo[d]oxazol-6-yl)-7H-pyrrolo[2,3-d]pyrimidin-2-ylamino)-3-methoxy-N-methylbenzamide]", "IC50": "< 0.1"},
      {"smiles": "CNC(=O)c1ccc(Nc2nc(OC3CCOCC3)c3c(-c4ccc(-c5nc(C)c[nH]5)cc4)c[nH]c3n2)c(OC)c1", "note": "[Example 207, 3-methoxy-N-methyl-4-(5-(4-(4-methyl-1H-imidazol-2-yl)phenyl)-4-(tetrahydro-2H-pyran-4-yloxy)-7H-pyrrolo[2,3-d]pyrimidin-2-ylamino)benzamide]", "IC50": "< 0.1"},
      {"smiles": "CNC(=O)c1ccc(Nc2nc(O[C@H]3CCOC3)c3c(-c4cnn(C)c4)c[nH]c3n2)c(C(C)C)c1", "note": "[Example 208, (S)-3-isopropyl-N-methyl-4-(5-(1-methyl-1H-pyrazol-4-yl)-4-(tetahydrofuran-3-yloxy)-7H-pyrrolo[2,3-d]pyrimidin-2-ylamino)benzamide]", "IC50": "0.1 to 0.4"},
      {"smiles": "CNC(=O)c1ccc(Nc2nc(O[C@H]3CCOC3)c3c(-c4ccc5nc(C)oc5c4)c[nH]c3n2)c(C(C)C)c1", "note": "[Example 209, (S)-3-isopropyl-N-methyl-4-(5-(2-methylbenzo[d]oxazol-6-yl)-4-(tetrahydrofuran-3-yloxy)-7H-pyrrolo[2,3-d]pyrimidin-2-ylamino)benzamide]", "IC50": "1 to 10"},
      {"smiles": "CNC(=O)c1ccc(Nc2nc(NC3CCOCC3)c3c(-c4cnn(C)c4)c[nH]c3n2)c(OC)c1", "note": "[Example 210, 3-methoxy-N-methyl-4-(5-(1-methyl-1H-pyrazol-4-yl)-4-(tetrahydro-2H-pyran-4-ylamino)-7H-pyrrolo[2,3-d]pyrimidin-2-ylamino)benzamide]", "IC50": "< 0.1"},
      {"smiles": "CNC(=O)c1ccc(Nc2nc(NC3CC3)c3c(-c4cnn(C)c4)c[nH]c3n2)c(OC)c1", "note": "[Example 211, 4-(4-(cyclopropylamino)-5-(1-methyl-1H-pyrazol-4-yl)-7H-pyrrolo[2,3-d]pyrimidin-2-ylamino)-3-methoxy-N-methylbenzamide]", "IC50": "0.1 to 0.4"},
      {"smiles": "CNC(=O)c1ccc(Nc2nc(NC3CC3)c3c(-c4ccc5nc(C)oc5c4)c[nH]c3n2)c(OC)c1", "note": "[Example 212, 4-(4-(cyclopropylamino)-5-(2-methylbenzo[d]oxazol-6-yl)-7H-pyrrolo[2,3-d]pyrimidin-2-ylamino)-3-methoxy-N-methylbenzamide]", "IC50": "0.1 to 0.4"},
      {"smiles": "COc1cc(C(=O)NCCO)ccc1Nc1nc(OC2CCOCC2)c2c(-c3ccc4nc(C)oc4c3)c[nH]c2n1", "note": "[Example 213, N-(2-hydroxyethyl)-3-methoxy-4-(5-(2-methylbenzo[d]oxazol-6-yl)-4-(tetrahydro-2H-pyran-4-yloxy)-7H-pyrrolo[2,3-d]pyrimidin-2-ylamino)benzamide]", "IC50": "< 0.1"},
      {"smiles": "COc1cc(C(=O)N[C@H](C)CO)ccc1Nc1nc(OC2CCCC2)c2c(-c3ccc4nc(C)oc4c3)c[nH]c2n1", "note": "[Example 214, (R)-4-(4-(cyclopentyloxy)-5-(2-methylbenzo[d]oxazol-6-yl)-7H-pyrrolo[2,3-d]pyrimidin-2-ylamino)-N-(1-hydroxypropan-2-yl)-3-methoxybenzamide]", "IC50": "< 0.1"},
      {"smiles": "COc1cc(C(=O)N[C@@H](C)CO)ccc1Nc1nc(OC2CCCC2)c2c(-c3ccc4nc(C)oc4c3)c[nH]c2n1", "note": "[Example 215, (S)-4-(4-(cyclopentyloxy)-5-(2-methylbenzo[d]oxazol-6-yl)-7H-pyrrolo[2,3-d]pyrimidin-2-ylamino)-N-(1-hydroxypropan-2-yl)-3-methoxybenzamide]", "IC50": "< 0.1"},
      {"smiles": "COc1cc(C(=O)NCCO)ccc1Nc1nc(OC2CC2)c2c(-c3ccc4nc(C)oc4c3)c[nH]c2n1", "note": "[Example 216, 4-(4-cyclopropoxy-5-(2-methylbenzo[d]oxazol-6-yl)-7H-pyrrolo[2,3-d]pyrimidin-2-ylamino)-N-(2-hydroxyethyl)-3-methoxybenzamide]", "IC50": "< 0.1"},
      {"smiles": "COc1cc(C(=O)NCCO)ccc1Nc1nc(OC2CC2)c2c(-c3cnn(C)c3)c[nH]c2n1", "note": "[Example 217, 4-(4-cyclopropoxy-5-(1-methyl-1H-pyrazol-4-yl)-7H-pyrrolo[2,3-d]pyrimidin-2-ylamino)-N-(2-hydroxyethyl)-3-methoxybenzamide]", "IC50": "0.1 to 0.4"},
      {"smiles": "CNS(=O)(=O)c1ccc(Nc2nc(OC3CCOCC3)c3c(-c4ccc5nc(C)oc5c4)c[nH]c3n2)c(OC)c1", "note": "[Example 219, 3-methoxy-N-methyl-4-(5-(2-methylbenzo[d]oxazol-6-yl)-4-(tetrahydro-2H-pyran-4-yloxy)-7H-pyrrolo[2,3-d]pyrimidin-2-ylamino)benzenesulfonamide]", "IC50": "0.1 to 0.4"},
      {"smiles": "CNC(=O)c1ccc(Nc2nc(OC(C)C)c3c(-c4ccn(C)n4)c[nH]c3n2)c(OC)c1", "note": "[Example 220, 4-(4-isopropoxy-5-(1-methyl-1H-pyrazol-3-yl)-7H-pyrrolo[2,3-d]pyrimidin-2-ylamino)-3-methoxy-N-methylbenzamide]", "IC50": "1 to 10"},
      {"smiles": "COCCOc1nc(Nc2ccc(C(=O)N(C)C)cc2OC)nc2[nH]cc(-c3cnn(C)c3)c12", "note": "[Example 221, 3-methoxy-4-(4-(2-methoxyethoxy)-5-(1-methyl-1H-pyrazol-4-yl)-7H-pyrrolo[2,3-d]pyrimidin-2-ylamino)-N,N-dimethylbenzamide]", "IC50": "< 0.1"},
      {"smiles": "COc1cc(C(=O)N(C)C)ccc1Nc1nc(O[C@@H]2CCOC2)c2c(-c3ccc4nc(C)oc4c3)c[nH]c2n1", "note": "[Example 222, (R)-3-methoxy-N,N-dimethyl-4-(5-(2-methylbenzo[d]oxazol-6-yl)-4-(tetrahydrofuran-3-yloxy)-7H-pyrrolo[2,3-d]pyrimidin-2-ylamino)benzamide]", "IC50": "< 0.1"},
      {"smiles": "CNC(=O)c1ccc(Nc2nc(OC3CCOCC3)c3c(-c4ccc5nc(C)sc5c4)c[nH]c3n2)c(OC)c1", "note": "[Example 223, 3-methoxy-N-methyl-4-(5-(2-methylbenzo[d]thiazol-6-yl)-4-(tetrahydro-2H-pyran-4-yloxy)-7H-pyrrolo[2,3-d]pyrimidin-2-ylamino)benzamide]", "IC50": "< 0.1"},
      {"smiles": "COc1cc(C(=O)NC(C)(C)C)ccc1Nc1nc(OC2CCCC2)c2c(-c3ccc4nc(C)oc4c3)c[nH]c2n1", "note": "[Example 224, N-tert-butyl-4-(4-(cyclopentyloxy)-5-(2-methylbenzo[d]oxazol-6-yl)-7H-pyrrolo[2,3-d]pyrimidin-2-ylamino)-3-methoxybenzamide]", "IC50": "0.1 to 0.4"},
      {"smiles": "CNC(=O)c1ccc(Nc2nc(O[C@H]3CCOC3)c3c(-c4ccnn4C)c[nH]c3n2)c(C(C)C)c1", "note": "[Example 225, (S)-3-isopropyl-N-methyl-4-(5-(1-methyl-1H-pyrazol-5-yl)-4-(tetrahydrofuran-3-yloxy)-7H-pyrrolo[2,3-d]pyrimidin-2-ylamino)benzamide]", "IC50": "1 to 10"},
      {"smiles": "CNC(=O)c1ccc(Nc2nc(OC(C)C)c3c(-c4ccnn4C)c[nH]c3n2)c(OC)c1", "note": "[Example 226, 4-(4-isopropoxy-5-(1-methyl-1H-pyrazol-5-yl)-7H-pyrrolo[2,3-d]pyrimidin-2-ylamino)-3-methoxy-N-methylbenzamide]", "IC50": "1 to 10"},
      {"smiles": "COc1cc(-c2cnn(C)c2)ccc1Nc1nc(OC2CCCC2)c2c(-c3ccc4nc(C)oc4c3)c[nH]c2n1", "note": "[Example 227, 4-(cyclopentyloxy)-N-(2-methoxy-4-(1-methyl-1H-pyrazol-4-yl)phenyl)-5-(2-methylbenzo[d]oxazol-6-yl)-7H-pyrrolo[2,3-d] pyrimidin-2-amine]", "IC50": "0.1 to 0.4"},
      {"smiles": "COc1cc(-n2cccn2)ccc1Nc1nc(OC2CCCC2)c2c(-c3ccc4nc(C)oc4c3)c[nH]c2n1", "note": "[Example 228, 4-(cyclopentyloxy)-N-(2-methoxy-4-(1H-pyrazol-1-yl)phenyl)-5-(2-methylbenzo[d]oxazol-6-yl)-7H-pyrrolo[2,3-d]pyrimidin-2-amine]", "IC50": "0.1 to 0.4"},
      {"smiles": "COc1cc(C(=O)NC2CCCC2)ccc1Nc1nc(OC2CCCC2)c2c(-c3ccc4nc(C)oc4c3)c[nH]c2n1", "note": "[Example 229, N-cyclopentyl-4-(4-(cyclopentyl-oxy)-5-(2-methylbenzo[d]oxazol-6-yl)-7H-pyrrolo[2,3-d]pyrimidin-2-ylamino)-3-methoxybenzamide]", "IC50": "0.4 to 1"},
      {"smiles": "COc1cc(C(=O)NC[C@@H](C)O)ccc1Nc1nc(OC2CCCC2)c2c(-c3ccc4nc(C)oc4c3)c[nH]c2n1", "note": "[Example 230, (R)-4-(4-(cyclopentyloxy)-5-(2-methylbenzo[d]oxazol-6-yl)-7H-pyrrolo[2,3-d]pyrimidin-2-ylamino)-N-(2-hydroxypropyl)-3-methoxybenzamide]", "IC50": "0.1 to 0.4"},
      {"smiles": "COc1cc(C(=O)N2CCC(O)CC2)ccc1Nc1nc(OC2CCCC2)c2c(-c3ccc4nc(C)oc4c3)c[nH]c2n1", "note": "[Example 231, (4-(4-(cyclopentyloxy)-5-(2-methylbenzo[d]oxazol-6-yl)-7H-pyrrolo[2,3-d]pyrimidin-2-ylamino)-3-methoxyphenyl)(4-hydroxy-piperidin-1-yl)methanone]", "IC50": "< 0.1"},
      {"smiles": "COc1cc(C(=O)NCCCO)ccc1Nc1nc(OC2CCCC2)c2c(-c3ccc4nc(C)oc4c3)c[nH]c2n1", "note": "[Example 232, 4-(4-(cyclopentyloxy)-5-(2-methylbenzo[d]oxazol-6-yl)-7H-pyrrolo[2,3-d]pyrimidin-2-ylamino)-N-(3-hydroxypropyl)-3-methoxybenzamide]", "IC50": "< 0.1"}
    ]}
  ]
}
